Assays:
[1] = Binding affinity to cereblon in human MDA-MB-468 cells assessed as cell growth inhibition measured after 4 days
[2] = Binding affinity to cereblon in human MDA-MB-231 cells assessed as cell growth inhibition measured after 4 days
[3] = Binding affinity to cereblon in human RV4:11/IRMI-2 cells harboring p53 hotspot mutation Y236H/R249G assessed as cell growth inhibition measured after 4 days
[4] = Binding affinity to cereblon in human RV4:11 cells expressing wild type p53 assessed as cell growth inhibition measured after 4 days
[5] = Binding affinity to cereblon in human RV4:11 cells expressing wild type p53 assessed as reduction in cell growth inhibition measured after 4 days in presence of 30 uM lenalidomide
[6] = Binding affinity to cereblon in human RV4:11/IRMI-2 cells harboring p53 hotspot mutation Y236H/R249G assessed as reduction in cell growth inhibition measured after 4 days in presence of 10 uM lenalidomide
[7] = Binding affinity to cereblon in human RV4:11/IRMI-2 cells harboring p53 hotspot mutation Y236H/R249G assessed as reduction in cell growth inhibition measured after 4 days in presence of 30 uM lenalidomide
[8] = Binding affinity to cereblon in human MDA-MB-468 cells assessed as reduction in cell growth inhibition measured after 4 days in presence of 30 uM lenalidomide
[9] = Binding affinity to cereblon in human RV4:11 cells expressing wild type p53 assessed as reduction in cell growth inhibition measured after 4 days in presence of 10 uM lenalidomide
[10] = Binding affinity to cereblon in human MDA-MB-231 cells assessed as reduction in cell growth inhibition measured after 4 days in presence of 100 uM of lenalidomide
[11] = Binding affinity to cereblon in human MDA-MB-231 cells assessed as reduction in cell growth inhibition measured after 4 days in presence of 30 uM of lenalidomide
[12] = Binding affinity to cereblon in human MDA-MB-231 cells assessed as reduction in cell growth inhibition measured after 4 days in presence of 10 uM of lenalidomide
[13] = Binding affinity to cereblon in human MDA-MB-468 cells assessed as reduction in cell growth inhibition measured after 4 days in presence of 10 uM lenalidomide
[14] = Binding affinity to cereblon in human RV4:11 cells expressing wild type p53 assessed as reduction in cell growth inhibition measured after 4 days in presence of 100 uM lenalidomide
[15] = Binding affinity to cereblon in human MDA-MB-468 cells assessed as reduction in cell growth inhibition measured after 4 days in presence of 100 uM lenalidomide
[16] = Binding affinity to cereblon in human RV4:11/IRMI-2 cells harboring p53 hotspot mutation Y236H/R249G assessed as reduction in cell growth inhibition measured after 4 days in presence of 100 uM lenalidomide

Compound | IC50 [1] | IC50 [2] | IC50 [3] | IC50 [4] | IC50 [5] | IC50 [6] | IC50 [7] | IC50 [8] | IC50 [9] | IC50 [10] | IC50 [11] | IC50 [12] | IC50 [13] | IC50 [14] | IC50 [15] | IC50 [16]
CNC(=O)[C@@H]1NC2(CCCCC2)[C@@]2(C(=O)Nc3cc(Cl)ccc32)[C@H]1c1cccc(Cl)c1F [US8629141, 21] | > 10 µM | > 10 µM | > 10 µM |  |  |  |  |  |  |  |  |  |  |  |  | 
O=C1CCC(N2Cc3c(CCCCCNC(=O)c4ccc(NC(=O)[C@@H]5NC6(CCCCC6)[C@@]6(C(=O)Nc7cc(Cl)ccc76)[C@H]5c5cccc(Cl)c5F)cc4)cccc3C2=O)C(=O)N1 (stereo partly specified) | > 10 µM | > 10 µM | > 10 µM | 0.0055 µM |  |  |  |  |  |  |  |  |  |  |  | 
O=C1CCC(N2Cc3c(CCCCCNC(=O)[C@@H]4NC5(CCCCC5)[C@@]5(C(=O)Nc6cc(Cl)ccc65)[C@H]4c4cccc(Cl)c4F)cccc3C2=O)C(=O)N1 (stereo partly specified) |  |  | 0.0031 µM | 0.002 µM | 0.211 µM | 0.168 µM | 0.4 µM | 0.964 µM | 0.096 µM | 2.14 µM | 1.37 µM | 0.623 µM | 0.419 µM | 0.496 µM | 2.07 µM | 0.982 µM

Source: BindingDB's records for doi:10.1021/acs.jmedchem.9b00846 (2019)
